# PMC8187479, “Sugar phosphate activation of the stress sensor eIF2B” (Nature Communications, 2021)
# Peptide text beside a SMILES is read from it.
# Target: T1, eIF2Bα (Homo sapiens, UniProt Q14232)
# T1 construct: made in house; host or cells: E. coli BL21(DE3)
# T1 sequence (Q14232 1-305): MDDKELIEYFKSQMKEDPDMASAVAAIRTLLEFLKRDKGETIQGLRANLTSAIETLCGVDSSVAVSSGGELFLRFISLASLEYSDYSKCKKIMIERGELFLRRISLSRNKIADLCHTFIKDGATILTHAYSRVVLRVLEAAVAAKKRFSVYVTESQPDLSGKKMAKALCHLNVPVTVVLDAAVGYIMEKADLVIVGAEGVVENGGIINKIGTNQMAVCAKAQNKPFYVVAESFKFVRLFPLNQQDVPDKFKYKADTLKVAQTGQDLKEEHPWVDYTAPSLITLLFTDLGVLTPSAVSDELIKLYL
# Assay: MIDAS (mass spectrometry integrated with equilibrium dialysis) metabolite binding screen
# Settings: MIDAS metabolite binding screen with eIF2Bα; sheet "eIF2Ba"
# In short: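 Hits called at Storey q < 0.1 on z-scores of PCA-corrected log2 fold change between protein and metabolite chambers, quantified by FIA-MS in triplicate.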
row,Structure (SMILES),log2(corrected fold change)
1,CC(C)(CO[P@@](=O)(O)O[P@@](=O)(O)OC[C@H]1O[C@@H](n2cnc3c(N)ncnc32)[C@H](O)[C@@H]1OP(=O)(O)O)[C@@H](O)C(=O)NCCC(=O)NCCSC(=O)CC(=O)O [Malonyl coenzyme A],-0.02331
2,OC[C@H]1O[C@H](OCC2O[C@@H](O)[C@H](O)[C@@H](O)[C@@H]2O)[C@H](O)[C@@H](O)[C@H]1O (stereo partly shown) [Melibiose],-0.003615
3,CC(C(=O)O)C(=O)O [Methylmalonic acid],-0.05121
4,"CN(C)CC(=O)O [N,N-Dimethylglycine]",0.0213
5,CC(=O)N[C@@H](CC(=O)O)C(=O)N[C@@H](CCC(=O)O)C(=O)O [N-Acetyl-Asp-Glu] (Ac-Asp-Glu-OH),0.1173
6,CC(=O)N[C@H]1C(OP(=O)(O)O)O[C@H](CO)[C@@H](O)[C@@H]1O (stereo partly drawn) [N-Acetyl-D-glucosamine 1-phosphate],-0.08166
7,CC(=O)N[C@H]1C(O)O[C@H](COP(=O)(O)O)[C@@H](O)[C@@H]1O (stereo partly drawn) [N-Acetyl-D-glucosamine 6-phosphate],-0.009906
8,CC(=O)N[C@@H]1C(O)O[C@H](CO)[C@@H](O)[C@@H]1O (stereo partly drawn) [N-Acetyl-D-mannosamine],0.03658
9,CC(=O)N[C@@H](CC(=O)O)C(=O)O [N-Acetyl-L-aspartate],0.003577
10,CC(=O)N[C@@H](CCC(=O)O)C(=O)O [N-Acetyl-L-glutamic acid],0.006675
11,CC(=O)N[C@H]1C(O)O[C@H](CO)[C@@H](O)[C@@H]1O[C@H](C)C(=O)O (stereo partly shown) [N-Acetylmuramic acid],0.002532
12,CC(=O)N[C@H]1[C@H]([C@H](O)[C@H](O)CO)OC(O)(C(=O)O)C[C@@H]1O (stereo partly shown) [N-Acetylneuraminic acid],-0.0313
13,O=C(CO)N[C@H]1[C@H]([C@H](O)[C@H](O)CO)OC(O)(C(=O)O)C[C@@H]1O (stereo partly shown) [N-Glycolylneuraminic acid],-0.02217
14,CCCCCC(=O)NCC(=O)O [N-Hexanoyl-glycine],-0.05912
15,CC(C)CC(=O)NCC(=O)O [N-Isovalerylglycine],-0.07333
16,NC(=O)C1=CN([C@@H]2O[C@H](COP(=O)(O)OP(=O)(O)OC[C@H]3O[C@@H](n4cnc5c(N)ncnc54)[C@H](O)[C@@H]3O)[C@@H](O)[C@H]2O)C=CC1 [NADH],0.1674
17,NC(=O)c1ccc[n+]([C@@H]2O[C@H](COP(=O)([O-])OP(=O)(O)OC[C@H]3O[C@@H](n4cnc5c(N)ncnc54)[C@H](OP(=O)(O)O)[C@@H]3O)[C@@H](O)[C@H]2O)c1 [NADP],0.02005

row,Structure (SMILES),log2(corrected fold change)
1,CC(=O)N[C@@H](CCCCN)C(=O)O [Nalpha-Acetyl-L-lysine],-0.03422
2,CC(=O)NCCCC[C@H](N)C(=O)O [Ne-Acetyl-lysine],-0.03422
3,NC(=O)c1ccc[n+]([C@@H]2O[C@H](COP(=O)([O-])OP(=O)(O)OC[C@H]3O[C@@H](n4cnc5c(N)ncnc54)[C@H](O)[C@@H]3O)[C@@H](O)[C@H]2O)c1 [Nicotinamide adenine dinucleotide],-0.063
4,N[C@@H](COP(=O)(O)O)C(=O)O [O-Phospho-L-serine],0.01938
5,CCCCCCCC(=O)O [Octanoic acid],-0.007345
6,CCCCCCCC(=O)SCCNC(=O)CCNC(=O)C(O)C(C)(C)COP(=O)(O)OP(=O)(O)OC[C@H]1O[C@@H](n2cnc3c(N)ncnc32)[C@H](O)[C@@H]1OP(=O)(O)O (stereo partly shown) [Octanoyl coenzyme A],0.3691
7,CC(C)(CO)[C@@H](O)C(=O)NCCC(=O)O [Pantothenic acid],0.0165
8,NCCc1ccccc1 [Phenethylamine],-0.07261
9,CN(CC(=O)O)C(=N)NP(=O)(O)O [Phosphocreatine],-0.03403
10,Cc1ncc(COP(=O)(O)O)c(C=O)c1O [Pyridoxal 5-phosphate],0.1983
11,Cc1ncc(CO)c(C=O)c1O [Pyridoxal],0.1009
12,Cc1ncc(COP(=O)(O)O)c(CN)c1O [Pyridoxamine-5-phosphate],-0.03281
13,Cc1ncc(CO)c(CN)c1O [Pyridoxamine],0.0724
14,Cc1cc2nc3c(=O)[nH]c(=O)nc-3n(C[C@H](O)[C@H](O)[C@H](O)COP(=O)(O)O)c2cc1C [Riboflavin 5-monophosphate],0.06004
15,C[S+](CC[C@H](N)C(=O)O)C[C@H]1O[C@@H](n2cnc3c(N)ncnc32)[C@H](O)[C@@H]1O (stereo partly drawn) [S-(5-Adenosyl)-L-methionine],0.006892
16,C[C@@H](O)C(=O)SC[C@H](NC(=O)CC[C@H](N)C(=O)O)C(=O)NCC(=O)O [S-Lactoylglutathione],-0.04124
17,O=C(O)CCC(=O)O [Succinic acid],-0.05121

# Same assay, conditions: MIDAS screen, sheet eIF2Ba; metabolites screened in pools 1-4; p-value and q-value given
row,Structure (SMILES),log2(corrected fold change)
1,O=P(O)(O)OC1O[C@H](CO)[C@@H](O)[C@H](O)[C@@H]1O (stereo partly shown) [Mannose 1-phosphate],-0.1344
2,CNCC(O)c1ccc(O)c(OC)c1 (stereo not shown) [Metanephrine],-0.1853
3,"CC(=O)N[C@H]1[C@H](O[C@H]2[C@H](O)[C@@H](NC(C)=O)C(O)O[C@@H]2CO)O[C@H](CO)[C@@H](O)[C@@H]1O (stereo partly shown) [N,N-Diacetylchitobiose]",0.08913
4,O=C(O)CNC(=O)c1ccco1 [N-2-Furoylglycine],-0.1649
5,CC(=O)NCCc1c[nH]c2ccc(O)cc12 [N-Acetyl-5-hydroxytryptamine],0.03423
6,CC(=O)N[C@H]1C(O)O[C@H](CO)[C@H](O)[C@@H]1O (stereo partly drawn) [N-Acetyl-D-galactosamine],0.3673
7,CC(=O)N[C@@H]1[C@@H](O)[C@H](O)[C@@H](CO)O[C@@H]1O [N-Acetyl-D-glucosamine],0.3673
8,CC(=O)N[C@@H](C)C(=O)O [N-Acetyl-L-alanine],0.07527
9,CC(=O)NCCCCN [N-Acetylputrescine],-0.2203
10,O=CNc1ccccc1C(=O)O [N-Formylanthranilic acid],0.2026
11,NC(=O)C1=CN([C@@H]2O[C@H](COP(=O)(O)OP(=O)(O)OC[C@H]3O[C@@H](n4cnc5c(N)ncnc54)[C@H](OP(=O)(O)O)[C@@H]3O)[C@@H](O)[C@H]2O)C=CC1 [NADPH],-0.8133
12,NC(=O)c1ccc[n+](C2OC(COP(=O)(O)OP(=O)(O)OCC3OC(n4cnc5c(=O)[nH]cnc54)C(O)C3O)C(O)C2O)c1 (stereo not shown) [Nicotinamide hypoxanthine dinucleotide],0.06307
13,NC(=O)c1ccc[n+]([C@@H]2O[C@H](COP(=O)([O-])O)[C@@H](O)[C@H]2O)c1 [Nicotinamide ribotide],1.511
14,NC(=O)c1cccnc1 [Nicotinamide],-0.1042
15,O=C(O)c1cccnc1 [Nicotinic acid],-0.1307
16,CC(=O)O[C@H](CC(=O)[O-])C[N+](C)(C)C [O-Acetyl-L-carnitine],-0.03661
17,NCCOP(=O)(O)O [O-Phosphorylethanolamine],0.1876

row,Structure (SMILES),log2(corrected fold change)
1,O=C(O)c1cc(=O)[nH]c(=O)[nH]1 [Orotic acid],0.07847
2,O=C(O)CC(=O)C(=O)O [Oxaloacetic acid],0.1095
3,O=C(O)CNC(=O)Cc1ccccc1 [Phenylacetylglycine],0.07604
4,O=C(O)C(=O)Cc1ccccc1 [Phenylpyruvate],0.02641
5,C[N+](C)(C)CCOP(=O)(O)O [Phosphocholine],-0.0156
6,NCc1[nH]cc(CCC(=O)O)c1CC(=O)O [Porphobilinogen],-0.05886
7,CCC(=O)SCCNC(=O)CCNC(=O)[C@H](O)C(C)(C)COP(=O)(O)OP(=O)(O)OC[C@H]1O[C@@H](n2cnc3c(N)ncnc32)[C@H](O)[C@@H]1OP(=O)(O)O [Propionyl coenzyme A],0.4521
8,CCC(=O)NCC(=O)O [Propionylglycine],0.07527
9,CCCCC[C@H](O)/C=C/[C@H]1C(=O)C[C@H](O)[C@@H]1C/C=C\CCCC(=O)O [Prostaglandin D2],0.05625
10,CCCCC[C@H](O)/C=C/[C@H]1[C@H](O)CC(=O)[C@@H]1C/C=C\CCCC(=O)O [Prostaglandin E2],0.05625
11,CCCCC[C@H](O)/C=C/[C@@H]1[C@H]2C/C(=C/CCCC(=O)O)O[C@H]2C[C@H]1O [Prostaglandin I2],0.05625
12,Cc1ncc(CO)c(CO)c1O [Pyridoxine],-0.04546
13,Cc1cc2nc3c(=O)[nH]c(=O)nc-3n(C[C@H](O)[C@H](O)[C@H](O)CO)c2cc1C [Riboflavin],0.3728
14,Nc1ncnc2c1ncn2[C@@H]1O[C@H](CSCC[C@H](N)C(=O)O)[C@@H](O)[C@H]1O [S-(5-Adenosyl)-L-homocysteine],-0.01949
15,CNCC(=O)O [Sarcosine],-0.1398
16,CC(C)(COP(=O)(O)OP(=O)(O)OC[C@H]1O[C@@H](n2cnc3c(N)ncnc32)[C@H](O)[C@@H]1OP(=O)(O)O)[C@H](O)C(=O)NCCC(=O)NCCSC(=O)CCC(=O)O [Succinyl coenzyme A],0.1384
